Test results taken from patent publication US7745547B1, “Multi-arm cyclic or cubic siloxane-based formulations for drug delivery” (Becton, Dickinson and Company, priority 2005, dated 2010).
One block for each molecule: values may come before it.

Legend:
[1] = Drug release time study of encapsulated cisplatin by UV-vis absorbance at 300 nm; type: physicochemical
Experimental: A drug release time study was performed on encapsulated cisplatin (i.e., cisplatin/delivery vehicle) to assess the time for complete release of the encapsulated drug from the delivery vehicle. UV-vis spectroscopy was used to monitor the change in absorbance in peaks associated with cisplatin over time.
5 mg of cisplatin was placed in a glass vial and 10 mL of water (10 mL) added. The vial was sonicated in a Bransonic Ultrasonic Cleaner (115 v, 50/60 HZ, […] transducer) for about 5 min to completely dissolve the cisplatin. 50 mg of the delivery vehicle (PEG400)4D4^M was placed in a separate vial and 10 mL of water added. Upon shaking, the polymer dissolved immediately. The cisplatin solution was added to the delivery vehicle solution drop-wise with sonication. After the mixing was complete, a UV-vis spectrum was recorded. The solution was further sonicated for 1 hr and monitored with UV-vis spectroscopy at intervals of 10 min to examine the encapsulation process. After 1 hr, sonication was stopped and incubation was allowed to continue at room temperature without shaking. UV-vis spectra were recorded at 20 min intervals for one hr, followed by 3 hours intervals for the next 24 hrs. After 24 hrs, UV-vis spectra were recorded at random intervals for several days to monitor the release time of the cisplatin. For reference, another solution of pure cisplatin was prepared at a similar concentration, and UV-vis spectra were recorded for the un-encapsulated cisplatin solution at similar intervals as with the encapsulated cisplatin solution. In about 200 hours ([…]), the absorbance of the encapsulated cisplatin solution dropped to the same level as that of the un-encapsulated cisplatin solution. This was viewed as the complete release of encapsulated cisplatin from the vehicle. All data provided in Table 4 were collected at a wavelength of 300 nm.

[2] = Microscopy of dried drops: crystal formation as evidence of cisplatin encapsulation; type: physicochemical; conditions: one drop on glass slide, room temperature, open air
Excerpt: The cisplatin/delivery vehicle samples were also examined under a microscope to further investigate the encapsulation. Specifically, a comparison was made between encapsulated and un-encapsulated cisplatin.
The cisplatin/delivery vehicle samples were also examined under a microscope to further investigate the encapsulation. A comparison was made between encapsulated and un-encapsulated cisplatin.

[3] = one drop of ethanol solution dried on glass slide
Excerpt: To verify the encapsulation, samples were examined under the microscope and a comparison was made between the paclitaxel solution alone and the paclitaxel/delivery vehicle solution. In particular, one drop of each solution was placed on a separate glass slide and the ethanol was allowed to evaporate at room temperature in the open-air. After complete evaporation of the ethanol, dry sample spots were covered and sealed by cover slides and both slides were examined under microscope.
For microscopic analysis, one drop of each solution (i.e., paclitaxel alone paclitaxel/delivery vehicle solutions) and was placed on a separate glass slide. The ethanol was allowed to evaporate at room temperature in the open-air. After complete evaporation of the ethanol, dry sample spots were covered and sealed by cover slides and both slides were examined under the microscope.

Compound: N.N.[Cl][Pt][Cl] [un-encapsulated cisplatin, cisplatin]
Absorbance ([1]; time 0.00 hrs): 0.18
Absorbance ([1]; time 0.17 hrs): 0.17
Absorbance ([1]; time 0.33 hrs): 0.16
Absorbance ([1]; time 0.50 hrs): 0.16
Absorbance ([1]; time 0.67 hrs): 0.16
Absorbance ([1]; time 0.83 hrs): 0.16
Absorbance ([1]; time 1.00 hrs): 0.16
Absorbance ([1]; time 1.33 hrs): 0.16
Absorbance ([1]; time 1.67 hrs): 0.16
Absorbance ([1]; time 2.00 hrs): 0.16
Absorbance ([1]; time 3.00 hrs): 0.16
Absorbance ([1]; time 21.00 hrs): 0.15
Absorbance ([1]; time 24.00 hrs): 0.15
Absorbance ([1]; time 42.00 hrs): 0.15
Absorbance ([1]; time 45.00 hrs): 0.15
Absorbance ([1]; time 72.00 hrs): 0.15
Absorbance ([1]; time 88.00 hrs): 0.15
Absorbance ([1]; time 120.00 hrs): 0.15
Absorbance ([1]; time 174.00 hrs): 0.15
Absorbance ([1]; time […]): 0.15
crystal formation as water evaporates (microscope) [2]: formed crystals

fluorescence when exposed to fluorescent light (microscope) [3]: shows fluorescence activity
Compound: CC(=O)O[C@H]1C(=O)[C@@]2(C)[C@H]([C@H](OC(=O)c3ccccc3)[C@]3(O)C[C@H](OC(=O)[C@H](O)[C@@H](NC(=O)c4ccccc4)c4ccccc4)C(C)=C1C3(C)C)[C@]1(OC(C)=O)CO[C@@H]1C[C@@H]2O [un-encapsulated paclitaxel, paclitaxel]
